Test results published in US20090298804A1, “Novel Compounds and Methods for Their Production” (priority 2006, published 2009).

Key:
LXF 1121L = assay: Monolayer proliferation assay (modified propidium iodide assay), LXF 1121L; format: cell-based, human; details: LXF 1121L (lung, large cell ca), 4 days continuous exposure
Description: (§1) In vitro evaluation of compounds for anticancer activity in a panel of human tumour cell lines in a monolayer proliferation assay was carried out at the Oncotest Testing Facility, Institute for Experimental Oncology, Oncotest GmbH, Freiburg.
(§2) The Oncotest cell lines are established from human tumor xenografts as described by Roth et al., (1999). The origin of the donor xenografts was described by Fiebig et al., (1999). Other cell lines were either obtained from the NCI (DU145, MCF-7) or purchased from DSMZ, Braunschweig, Germany.
(§3) All cell lines, unless otherwise specified, were grown at 37° C. in a humidified atmosphere (95% air, 5% CO2) in a ‘ready-mix’ medium containing RPMI 1640 medium, 10% fetal calf serum, and 0.1 mg/mL gentamicin (PAA, Cölbe, Germany).
(§4) A modified propidium iodide assay was used to assess the effects of the test compound(s) on the growth of human tumour cell lines (Dengler et al., (1995)).
(§5) Briefly, cells were harvested from exponential phase cultures by trypsinization, counted and plated in 96 well flat-bottomed microtitre plates at a cell density dependent on the cell line (5-10.000 viable cells/well). […] After thawing the plates, fluorescence was measured using the Cytofluor 4000 microplate reader (excitation 530 nm, emission 620 nm), giving a direct relationship to the total number of viable cells.
(§6) Growth inhibition was expressed as treated/control×100 (% T/C). […]

CXF HT29 = assay: Monolayer proliferation assay (modified propidium iodide assay), CXF HT29; format: cell-based, human; details: CXF HT29 (colon), 4 days continuous exposure
Description: as §1, §2, §3, §4, §5, §6

MCF-7 = assay: Monolayer proliferation assay (modified propidium iodide assay), MCF-7; format: cell-based, human; details: MCF-7 (breast), 4 days continuous exposure
Description: as §1, §2, §3, §4, §5, §6

CNXF 498NL = assay: Monolayer proliferation assay (modified propidium iodide assay), CNXF 498NL; format: cell-based, human; details: CNXF 498NL (CNS), 4 days continuous exposure
Description: as §1, §2, §3, §4, §5, §6

DU145 = assay: Monolayer proliferation assay (modified propidium iodide assay), DU145; format: cell-based, human; details: DU145 (prostate, PTEN positive), 4 days continuous exposure
Description: as §1, §2, §3, §4, §5, §6

MEXF 394NL = assay: Monolayer proliferation assay (modified propidium iodide assay), MEXF 394NL; format: cell-based, human; details: MEXF 394NL (melanoma), 4 days continuous exposure
Description: as §1, §2, §3, §4, §5, §6

Hsp90 = Hsp90 (Homo sapiens, UniProt P07900); details: cited from earlier work
[1] = molecular target: terminal deoxynucleotidyl transferase (Homo sapiens, UniProt P04053); details: cited from earlier work
Reverse transcriptase = details: cited from earlier work

Sequence of terminal deoxynucleotidyl transferase (P04053 whole entry, species assumed): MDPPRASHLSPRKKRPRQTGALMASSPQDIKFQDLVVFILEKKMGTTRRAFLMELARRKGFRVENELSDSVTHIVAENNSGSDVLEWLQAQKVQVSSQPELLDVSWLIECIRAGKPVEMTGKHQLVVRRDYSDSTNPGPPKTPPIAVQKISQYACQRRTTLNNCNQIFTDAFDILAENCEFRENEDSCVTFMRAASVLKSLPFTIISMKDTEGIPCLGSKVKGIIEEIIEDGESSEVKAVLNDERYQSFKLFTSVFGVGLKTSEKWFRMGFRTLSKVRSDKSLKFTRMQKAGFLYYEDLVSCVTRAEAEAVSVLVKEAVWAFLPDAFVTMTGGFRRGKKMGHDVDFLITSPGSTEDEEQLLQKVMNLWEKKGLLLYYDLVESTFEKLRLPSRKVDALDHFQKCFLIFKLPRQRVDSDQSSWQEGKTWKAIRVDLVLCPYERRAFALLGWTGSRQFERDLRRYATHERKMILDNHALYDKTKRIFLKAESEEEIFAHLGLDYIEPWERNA

## 15-desmethoxy macbecin [compound 15]
LXF 1121L; 1 μg/mL
  Test/Control (%) at drug concentration: 47.7%
LXF 1121L; 10 μg/mL
  Test/Control (%) at drug concentration: 14.7%
CXF HT29; 1 μg/mL
  Test/Control (%) at drug concentration: 54.7%
CXF HT29; 10 μg/mL
  Test/Control (%) at drug concentration: 13%
MCF-7; 1 μg/mL
  Test/Control (%) at drug concentration: 53.3%
MCF-7; 10 μg/mL
  Test/Control (%) at drug concentration: 13%
CNXF 498NL; 1 μg/mL
  Test/Control (%) at drug concentration: 44.3%
CNXF 498NL; 10 μg/mL
  Test/Control (%) at drug concentration: 12.7%
DU145; 1 μg/mL
  Test/Control (%) at drug concentration: 30.3%
DU145; 10 μg/mL
  Test/Control (%) at drug concentration: 6.3%
MEXF 394NL; 1 μg/mL
  Test/Control (%) at drug concentration: 24.3%
MEXF 394NL; 10 μg/mL
  Test/Control (%) at drug concentration: 4.7%

## CO[C@H]1C[C@H](C)Cc2cc(O)cc(c2)NC(=O)/C=C/CC[C@H](OC)[C@@H](OC(N)=O)/C(C)=C/[C@H](C)[C@H]1O [KOSN1559]
Hsp90; relative to 17-AAG
  binding affinity to Hsp90, greater than 17-AAG: 8 fold
Hsp90; relative to geldanamycin
  binding affinity to Hsp90, greater than geldanamycin: 4 fold

## CO[C@H]1[C@@H](OC)C[C@H](C)[C@@H](OC)C2=CC(=O)C=C(NC(=O)/C(C)=C/C=C\[C@H](C)[C@@H](OC(N)=O)/C(C)=C/[C@@H]1C)C2=O [Macbecin, macbecin]
[1]
  terminal deoxynucleotidyl transferase activity inhibition: not inhibited
Reverse transcriptase
  Reverse transcriptase activity inhibition: not inhibited
